Legend:
Assay in all cases: relative viability (nuclei count vs DMSO), 5 days (fraction); higher = more cells survive
[1] = system: NCI-H23
In short: (§1)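 After 5 days of treatment, lung cancer cells in 1536-well plates were fixed and stained in a single step (final 0.05% Triton X-100, 1% formaldehyde, 1 ug/ml Hoechst) and their nuclei counted on 4× images. Treatment had been applied by pin tool the day after seeding as one drug alone or as a fixed anchor-drug dose with five library-drug doses (not always all listed) in √10 steps. Relative viability is the nuclei count of treated wells divided by that of vehicle wells, and values are medians of duplicate plates.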

[2] = system: EKVX
In short: as §1

[3] = system: NCI-H727
In short: as §1

[4] = system: NCI-H1666
In short: as §1

[5] = system: NCI-H647
In short: as §1

[6] = system: NCI-H838
In short: as §1

[7] = system: NCI-H1437
In short: as §1

[8] = system: SK-LU-1
In short: as §1

[9] = system: NCI-H661
In short: as §1

[10] = system: NCI-H322M
In short: as §1

[11] = system: NCI-H358
In short: as §1

[12] = system: NCI-H460
In short: as §1

[13] = system: NCI-H441
In short: as §1

[14] = system: NCI-H1975
In short: as §1

[15] = system: LCLC-97TM1
In short: as §1

[16] = system: NCI-H1915
In short: as §1

[17] = system: NCI-H596
In short: as §1

[18] = system: PC-3 [JPC-3]
In short: as §1

[19] = system: NCI-H1792
In short: as §1

[20] = system: NCI-H520
In short: as §1

CCNC(=O)c1noc(-c2cc(C(C)C)c(O)cc2O)c1-c1ccc(CN2CCOCC2)cc1 [Luminespib] + C[C@]1(O)C[C@@H](c2nc(-c3ccc4ccc(-c5ccccc5)nc4c3)c3c(N)nccn32)C1 [Linsitinib] (partner 1 µM)
relative viability ([1]; first compound 0.002 µM): 0.674
relative viability ([1]; first compound 0.006325 µM): 0.55
relative viability ([1]; first compound 0.02 µM): 0.355
relative viability ([1]; first compound 0.06325 µM): 0.172
relative viability ([1]; first compound 0.2 µM): 0.136
relative viability ([2]; first compound 0.002 µM): 1
relative viability ([2]; first compound 0.006325 µM): 0.989
relative viability ([2]; first compound 0.02 µM): 0.721
relative viability ([2]; first compound 0.06325 µM): 0.779
relative viability ([2]; first compound 0.2 µM): 0.179
relative viability ([3]; first compound 0.002 µM): 0.317
relative viability ([3]; first compound 0.006325 µM): 0.258
relative viability ([3]; first compound 0.02 µM): 0.284
relative viability ([3]; first compound 0.06325 µM): 0.221
relative viability ([3]; first compound 0.2 µM): 0.211
relative viability ([4]; first compound 0.002 µM): 0.707
relative viability ([4]; first compound 0.006325 µM): 0.785
relative viability ([4]; first compound 0.02 µM): 0.751
relative viability ([4]; first compound 0.06325 µM): 0.803
relative viability ([4]; first compound 0.2 µM): 0.511
relative viability ([5]; first compound 0.002 µM): 1.23
relative viability ([5]; first compound 0.006325 µM): 1.26
relative viability ([5]; first compound 0.02 µM): 0.914
relative viability ([5]; first compound 0.06325 µM): 0.0924
relative viability ([5]; first compound 0.2 µM): 0.0826
relative viability ([6]; first compound 0.002 µM): 1
relative viability ([6]; first compound 0.006325 µM): 0.942
relative viability ([6]; first compound 0.02 µM): 0.77
relative viability ([6]; first compound 0.06325 µM): 0.13
relative viability ([6]; first compound 0.2 µM): 0.149
relative viability ([7]; first compound 0.002 µM): 1.06
relative viability ([7]; first compound 0.006325 µM): 0.989
relative viability ([7]; first compound 0.02 µM): 1.08
relative viability ([7]; first compound 0.06325 µM): 0.22
relative viability ([7]; first compound 0.2 µM): 0.0998
relative viability ([8]; first compound 0.002 µM): 1.02
relative viability ([8]; first compound 0.006325 µM): 0.89
relative viability ([8]; first compound 0.02 µM): 0.474
relative viability ([8]; first compound 0.06325 µM): 0.193
relative viability ([8]; first compound 0.2 µM): 0.178
relative viability ([9]; first compound 0.002 µM): 0.569
relative viability ([9]; first compound 0.006325 µM): 0.527
relative viability ([9]; first compound 0.02 µM): 0.369
relative viability ([9]; first compound 0.06325 µM): 0.395
relative viability ([9]; first compound 0.2 µM): 0.187
relative viability ([10]; first compound 0.002 µM): 0.805
relative viability ([10]; first compound 0.006325 µM): 0.851
relative viability ([10]; first compound 0.02 µM): 0.725
relative viability ([10]; first compound 0.06325 µM): 0.998
relative viability ([10]; first compound 0.2 µM): 0.963
relative viability ([11]; first compound 0.002 µM): 0.828
relative viability ([11]; first compound 0.006325 µM): 0.654
relative viability ([11]; first compound 0.02 µM): 0.649
relative viability ([11]; first compound 0.06325 µM): 0.129
relative viability ([11]; first compound 0.2 µM): 0.111
relative viability ([12]; first compound 0.002 µM): 0.862
relative viability ([12]; first compound 0.006325 µM): 0.64
relative viability ([12]; first compound 0.02 µM): 0.0374
relative viability ([12]; first compound 0.06325 µM): 0.0101
relative viability ([12]; first compound 0.2 µM): 0.0074
relative viability ([13]; first compound 0.002 µM): 0.797
relative viability ([13]; first compound 0.006325 µM): 0.5
relative viability ([13]; first compound 0.02 µM): 0.485
relative viability ([13]; first compound 0.06325 µM): 0.108
relative viability ([13]; first compound 0.2 µM): 0.0934
relative viability ([14]; first compound 0.002 µM): 1.08
relative viability ([14]; first compound 0.006325 µM): 0.882
relative viability ([14]; first compound 0.02 µM): 0.492
relative viability ([14]; first compound 0.06325 µM): 0.156
relative viability ([14]; first compound 0.2 µM): 0.141
relative viability ([15]; first compound 0.002 µM): 0.213
relative viability ([15]; first compound 0.006325 µM): 0.199
relative viability ([15]; first compound 0.02 µM): 0.154
relative viability ([15]; first compound 0.06325 µM): 0.174
relative viability ([15]; first compound 0.2 µM): 0.192
relative viability ([16]; first compound 0.002 µM): 1.12
relative viability ([16]; first compound 0.006325 µM): 1.09
relative viability ([16]; first compound 0.02 µM): 1.02
relative viability ([16]; first compound 0.06325 µM): 1.11
relative viability ([16]; first compound 0.2 µM): 1.05
relative viability ([17]; first compound 0.002 µM): 1.06
relative viability ([17]; first compound 0.006325 µM): 0.995
relative viability ([17]; first compound 0.06325 µM): 1.06
relative viability ([17]; first compound 0.2 µM): 0.907
relative viability ([18]; first compound 0.002 µM): 0.963
relative viability ([18]; first compound 0.006325 µM): 0.939
relative viability ([18]; first compound 0.02 µM): 0.991
relative viability ([18]; first compound 0.06325 µM): 0.997
relative viability ([18]; first compound 0.2 µM): 0.897
relative viability ([19]; first compound 0.002 µM): 0.444
relative viability ([19]; first compound 0.006325 µM): 0.469
relative viability ([19]; first compound 0.02 µM): 0.212
relative viability ([19]; first compound 0.06325 µM): 0.297
relative viability ([19]; first compound 0.2 µM): 0.106
relative viability ([20]; first compound 0.002 µM): 1.27
relative viability ([20]; first compound 0.006325 µM): 0.966
relative viability ([20]; first compound 0.02 µM): 0.94
relative viability ([20]; first compound 0.06325 µM): 0.134
relative viability ([20]; first compound 0.2 µM): 0.121

Nc1cccc2c1CN(C1CCC(=O)NC1=O)C2=O (configuration not stated) [Lenalidomide] + Cc1nc(NC(=O)N2CCC[C@H]2C(N)=O)sc1-c1ccnc(C(C)(C)C(F)(F)F)c1 [Alpelisib] (partner 2 µM)
relative viability ([1]; first compound 0.253 µM): 0.792
relative viability ([1]; first compound 0.8 µM): 0.581
relative viability ([1]; first compound 2.53 µM): 0.846
relative viability ([1]; first compound 8 µM): 0.47
relative viability ([2]; first compound 0.253 µM): 0.803
relative viability ([2]; first compound 0.8 µM): 0.95
relative viability ([2]; first compound 2.53 µM): 0.931
relative viability ([2]; first compound 8 µM): 0.772
relative viability ([3]; first compound 0.253 µM): 0.546
relative viability ([3]; first compound 2.53 µM): 0.543
relative viability ([3]; first compound 8 µM): 0.553
relative viability ([4]; first compound 0.253 µM): 1.04
relative viability ([4]; first compound 0.8 µM): 0.83
relative viability ([4]; first compound 2.53 µM): 0.882
relative viability ([4]; first compound 8 µM): 1.04
relative viability ([5]; first compound 0.253 µM): 1.22
relative viability ([5]; first compound 0.8 µM): 1.14
relative viability ([5]; first compound 2.53 µM): 1.1
relative viability ([5]; first compound 8 µM): 1.12
relative viability ([6]; first compound 0.253 µM): 0.97
relative viability ([6]; first compound 0.8 µM): 1
relative viability ([6]; first compound 2.53 µM): 1.25
relative viability ([6]; first compound 8 µM): 0.896
relative viability ([7]; first compound 0.253 µM): 1.01
relative viability ([7]; first compound 0.8 µM): 1.03
relative viability ([7]; first compound 2.53 µM): 1.09
relative viability ([7]; first compound 8 µM): 1
relative viability ([8]; first compound 0.253 µM): 0.913
relative viability ([8]; first compound 0.8 µM): 0.999
relative viability ([8]; first compound 2.53 µM): 1.29
relative viability ([8]; first compound 8 µM): 1.07
relative viability ([9]; first compound 0.253 µM): 0.957
relative viability ([9]; first compound 0.8 µM): 0.447
relative viability ([9]; first compound 2.53 µM): 0.458
relative viability ([9]; first compound 8 µM): 0.544
relative viability ([10]; first compound 0.253 µM): 0.745
relative viability ([10]; first compound 0.8 µM): 0.887
relative viability ([10]; first compound 2.53 µM): 0.837
relative viability ([10]; first compound 8 µM): 0.66
relative viability ([11]; first compound 0.253 µM): 0.902
relative viability ([11]; first compound 0.8 µM): 0.834
relative viability ([11]; first compound 2.53 µM): 0.838
relative viability ([11]; first compound 8 µM): 1.06
relative viability ([12]; first compound 0.253 µM): 0.363
relative viability ([12]; first compound 0.8 µM): 0.492
relative viability ([12]; first compound 2.53 µM): 0.667
relative viability ([12]; first compound 8 µM): 0.57
relative viability ([13]; first compound 0.253 µM): 0.74
relative viability ([13]; first compound 0.8 µM): 0.663
relative viability ([13]; first compound 2.53 µM): 0.917
relative viability ([13]; first compound 8 µM): 0.775
relative viability ([14]; first compound 0.253 µM): 0.724
relative viability ([14]; first compound 0.8 µM): 0.667
relative viability ([14]; first compound 2.53 µM): 0.753
relative viability ([14]; first compound 8 µM): 0.592
relative viability ([15]; first compound 0.8 µM): 0.236
relative viability ([15]; first compound 2.53 µM): 0.308
relative viability ([15]; first compound 8 µM): 0.164
relative viability ([16]; first compound 0.253 µM): 0.984
relative viability ([16]; first compound 0.8 µM): 1.07
relative viability ([16]; first compound 2.53 µM): 1.13
relative viability ([16]; first compound 8 µM): 1.07
relative viability ([17]; first compound 0.253 µM): 0.574
relative viability ([17]; first compound 0.8 µM): 0.452
relative viability ([17]; first compound 2.53 µM): 0.481
relative viability ([17]; first compound 8 µM): 0.497
relative viability ([18]; first compound 0.253 µM): 0.992
relative viability ([18]; first compound 0.8 µM): 0.981
relative viability ([18]; first compound 2.53 µM): 1.09
relative viability ([18]; first compound 8 µM): 1.05
relative viability ([19]; first compound 0.253 µM): 0.755
relative viability ([19]; first compound 0.8 µM): 0.604
relative viability ([19]; first compound 2.53 µM): 0.82
relative viability ([19]; first compound 8 µM): 0.612
relative viability ([20]; first compound 0.253 µM): 0.88
relative viability ([20]; first compound 0.8 µM): 0.922
relative viability ([20]; first compound 2.53 µM): 1.15
relative viability ([20]; first compound 8 µM): 0.779
